We go through 24 molecules from patent publication US20110212968A1, “PHENETHYLAMIDE DERIVATIVES AND THEIR HETEROCYCLIC ANALOGUES” (priority 2008, published 2011).

Where only a bound is given, the exact number is not on record here.

Assay [1] deals with T1, human orexin-1 receptor (Homo sapiens, UniProt O43613).
T1 construct: expressed in transfected cells; host or cells: CHO (Chinese hamster ovary) cells, kept under G418 selection
T1 sequence (O43613 1-425): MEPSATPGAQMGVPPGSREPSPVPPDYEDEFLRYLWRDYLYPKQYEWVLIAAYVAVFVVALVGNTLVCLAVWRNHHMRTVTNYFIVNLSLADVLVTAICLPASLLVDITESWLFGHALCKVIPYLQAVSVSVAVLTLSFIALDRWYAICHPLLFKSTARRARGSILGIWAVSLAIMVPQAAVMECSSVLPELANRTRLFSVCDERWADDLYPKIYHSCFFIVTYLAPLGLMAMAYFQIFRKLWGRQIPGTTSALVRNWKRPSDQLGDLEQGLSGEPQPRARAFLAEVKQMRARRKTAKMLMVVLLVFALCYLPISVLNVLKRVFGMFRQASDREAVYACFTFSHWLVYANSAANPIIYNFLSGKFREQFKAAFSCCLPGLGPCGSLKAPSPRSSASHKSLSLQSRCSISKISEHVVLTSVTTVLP
Description: Intracellular calcium measurement (FLIPR Tetra), orexin receptor antagonistic activity, OX1. To be noted: CHO cells expressing human orexin-1 receptor, 3 nM orexin-A, conditions B. The assay is classed as cell-based. In outline: (§1)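 Recombinant CHO cells expressing human OX1 or OX2, loaded with fluo-4 AM plus probenecid, were preincubated with antagonist 10 min, then stimulated with 3 nM human orexin-A. Peak fluorescence was compared with vehicle; IC50 derived, sometimes normalized to an on-plate reference compound; two pipetting/cell-splitting conditions were used.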

Assay [2] concerns the target T2, human orexin-2 receptor (Homo sapiens, UniProt O43614).
T2 construct: expressed in transfected cells; host or cells: CHO (Chinese hamster ovary) cells, kept under G418 selection
T2 sequence (O43614 1-444): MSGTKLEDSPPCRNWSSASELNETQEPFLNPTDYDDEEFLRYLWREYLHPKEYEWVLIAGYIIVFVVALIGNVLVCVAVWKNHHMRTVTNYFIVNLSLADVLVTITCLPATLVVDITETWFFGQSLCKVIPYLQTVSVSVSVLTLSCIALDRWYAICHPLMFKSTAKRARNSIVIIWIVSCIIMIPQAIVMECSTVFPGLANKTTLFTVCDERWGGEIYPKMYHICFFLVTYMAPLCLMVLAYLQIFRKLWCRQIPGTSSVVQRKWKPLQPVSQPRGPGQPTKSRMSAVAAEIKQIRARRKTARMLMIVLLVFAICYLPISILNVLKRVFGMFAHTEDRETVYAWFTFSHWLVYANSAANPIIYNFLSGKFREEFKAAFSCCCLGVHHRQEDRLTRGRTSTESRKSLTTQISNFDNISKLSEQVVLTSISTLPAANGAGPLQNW
Description: Intracellular calcium measurement (FLIPR Tetra), orexin receptor antagonistic activity, OX2. The assay is classed as cell-based. To be noted: CHO cells expressing human orexin-2 receptor, 3 nM orexin-A, conditions B. Summed up:
as §1

[3] abbreviates: normalized (*) using IC50 of on-plate reference compound.

For `COc1cccc(-c2cnccc2C(=O)N(CCc2ccc(OC)c(OC)c2)CC2CC2)c1` [Example 389, N-Cyclopropylmethyl-N-[2-(3,4-dimethoxy-phenyl)-ethyl]-3-(3-methoxy-phenyl)-isonicotinamide], the values for the IC50 in assay [1] and in assay [2] were 282 nM and 6 nM, respectively.

Turning to `COc1ccc(CCN(CC2CC2)C(=O)c2ncccc2-c2cccc(C)c2)cc1OC` [Example 390, 3-m-Tolyl-pyridine-2-carboxylic acid cyclopropylmethyl-[2-(3,4-dimethoxy-phenyl)-ethyl]-amide], the values for the half-maximal inhibitory concentration (IC50) in assay [1] and in assay [2] were 182 nM and 4 nM, respectively.

For the molecule `COc1ccc(CCN(CC2CC2)C(=O)c2ncccc2-c2ccc(C)cc2)cc1OC` [Example 391], the IC50 amounted to 388 nM in assay [1] and 4 nM in assay [2].

`COc1cccc(-c2cccnc2C(=O)N(CCc2ccc(OC)c(OC)c2)CC2CC2)c1` [Example 393, 3-(3-Methoxy-phenyl)-pyridine-2-carboxylic acid cyclopropyl-methyl-[2-(3,4-dimethoxy-phenyl)-ethyl]-amide]: the IC50 turned out to be 108 nM in assay [1] and 3 nM in assay [2].

On to `COc1ccc(CCN(CC2CC2)C(=O)c2cccnc2-c2cccc(C)c2)cc1OC` [Example 394, N-Cyclopropylmethyl-N-[2-(3,4-dimethoxy-phenyl)-ethyl]-2-m-tolyl-nicotinamide], for which the results for the IC50 in assay [1] and in assay [2] were 156 nM and 4 nM, respectively.

As for `COc1ccc(CCN(CC2CC2)C(=O)c2cccnc2-c2ccc(C)cc2)cc1OC` [Example 395, N-Cyclopropylmethyl-N-[2-(3,4-dimethoxy-phenyl)-ethyl]-2-p-tolyl-nicotinamide], the IC50 in assay [1] was found to be 286 nM; in assay [2], 10 nM.

As for `COc1cccc(-c2ncccc2C(=O)N(CCc2ccc(OC)c(OC)c2)CC2CC2)c1` [Example 397, N-Cyclopropylmethyl-N-[2-(3,4-dimethoxy-phenyl)-ethyl]-2-(3-methoxy-phenyl)-nicotinamide], the half-inhibitory concentration (IC50) in assay [1] amounted to 266 nM; in assay [2] it was 7 nM.

Regarding `COc1ccc(-c2cccnc2C(=O)N(CCc2c[nH]c3ccc(F)cc23)CC2CC2)cn1` [Example 400, 6′-Methoxy-[3,3′]bipyridinyl-2-carboxylic acid cyclopropylmethyl-[2-(5-fluoro-1H-indol-3-yl)-ethyl]-amide], the IC50 in assay [1] (setting [3]) was 62 nM; in assay [2] (setting [3]), 11 nM.

`Cc1cncc(-c2cccnc2C(=O)N(CCc2c[nH]c3ccc(F)cc23)CC2CC2)c1` [Example 402, 5′-Methyl-[3,3′]bipyridinyl-2-carboxylic acid cyclopropylmethyl-[2-(5-fluoro-1H-indol-3-yl)-ethyl]-amide]: the IC50 stood at 700 nM in assay [1] (setting [3]) and 72 nM in assay [2] (setting [3]).

Regarding `O=C(c1ncccc1-c1cc(Cl)cnc1F)N(CCc1c[nH]c2ccc(F)cc12)CC1CC1` [Example 403, 5′-Chloro-2′-fluoro-[3,3′]bipyridinyl-2-carboxylic acid cyclopropylmethyl-[2-(5-fluoro-1H-indol-3-yl)-ethyl]-amide], the concentration for half-maximal inhibition (IC50) in assay [1] (setting [3]) was 3830 nM; in assay [2] (setting [3]) it was 230 nM.

For `O=C(c1ncccc1-c1cnc2ccccc2c1)N(CCc1c[nH]c2ccc(F)cc12)CC1CC1` [Example 404, 3-Quinolin-3-yl-pyridine-2-carboxylic acid cyclopropylmethyl-[2-(5-fluoro-1H-indol-3-yl)-ethyl]-amide], the values for the 50% inhibitory concentration (IC50) in assay [1] (setting [3]) and in assay [2] (setting [3]) were 58 nM and 12 nM, respectively.

On to `COc1ccc(-c2sc(C)nc2C(=O)N(CCc2c[nH]c3ccc(F)cc23)CC2CC2)cc1C` [Example 410, 5-(4-Methoxy-3-methyl-phenyl)-2-methyl-thiazole-4-carboxylic acid cyclopropylmethyl-[2-(5-fluoro-1H-indol-3-yl)-ethyl]-amide], for which the IC50 in assay [1] (setting [3]) was 3650 nM; in assay [2] (setting [3]), 145 nM.

For the molecule `Cc1nc(C(=O)N(CCc2c[nH]c3ccc(F)cc23)CC2CC2)c(-c2ccc(F)c(CO)c2)s1` [Example 418, 5-(4-Fluoro-3-hydroxymethyl-phenyl)-2-methyl-thiazole-4-carboxylic acid cyclopropylmethyl-[2-(5-fluoro-1H-indol-3-yl)-ethyl]-amide], the IC50 was 148 nM in assay [1] (setting [3]) and 13 nM in assay [2] (setting [3]).

Take `Cc1nc(C(=O)N(CCc2c[nH]c3ccc(F)cc23)CC2CC2)c(-c2ccc(C#N)c(F)c2)s1` [Example 419, 5-(4-Cyano-3-fluoro-phenyl)-2-methyl-thiazole-4-carboxylic acid cyclopropylmethyl-[2-(5-fluoro-1H-indol-3-yl)-ethyl]-amide]: the half-maximal inhibitory concentration (IC50) in assay [1] (setting [3]) was 2510 nM; in assay [2] (setting [3]), 100 nM.

On to `COc1nccc(-c2sc(C)nc2C(=O)N(CCc2c[nH]c3ccc(F)cc23)CC2CC2)c1Cl` [Example 420, 5-(3-Chloro-2-methoxy-pyridin-4-yl)-2-methyl-thiazole-4-carboxylic acid cyclopropylmethyl-[2-(5-fluoro-1H-indol-3-yl)-ethyl]-amide], for which the IC50 in assay [1] (setting [3]) stood at 373 nM; in assay [2] (setting [3]), 83 nM.

Turning to `COc1ccc(-c2sc(C)nc2C(=O)N(CCc2c[nH]c3ccc(F)cc23)CC2CC2)cn1` [Example 421, 5-(6-Methoxy-pyridin-3-yl)-2-methyl-thiazole-4-carboxylic acid cyclopropylmethyl-[2-(5-fluoro-1H-indol-3-yl)-ethyl]-amide], the results for the IC50 in assay [1] (setting [3]) and in assay [2] (setting [3]) were 34 nM and 4 nM, respectively.

Regarding `Cc1nc(C(=O)N(CCc2c[nH]c3ccc(F)cc23)CC2CC2)c(-c2ccc(CO)nc2)s1` [Example 423, 5-(6-Hydroxymethyl-pyridin-3-yl)-2-methyl-thiazole-4-carboxylic acid cyclopropylmethyl-[2-(5-fluoro-1H-indol-3-yl)-ethyl]-amide], the IC50 in assay [1] (setting [3]) came to 1610 nM; in assay [2] (setting [3]) it was 53 nM.

`CSc1cncc(-c2sc(C)nc2C(=O)N(CCc2c[nH]c3ccc(F)cc23)CC2CC2)c1` [Example 424, 2-Methyl-5-(5-methylsulfanyl-pyridin-3-yl)-thiazole-4-carboxylic acid cyclopropylmethyl-[2-(5-fluoro-1H-indol-3-yl)-ethyl]-amide]: the figures for the half-maximal inhibitory concentration (IC50) in assay [1] (setting [3]) and in assay [2] (setting [3]) were 180 nM and 47 nM, respectively.

`Cc1cncc(-c2sc(C)nc2C(=O)N(CCc2c[nH]c3ccc(F)cc23)CC2CC2)c1` [Example 426, 2-Methyl-5-(5-methyl-pyridin-3-yl)-thiazole-4-carboxylic acid cyclopropylmethyl-[2-(5-fluoro-1H-indol-3-yl)-ethyl]-amide]: the IC50 is 292 nM in assay [1] (setting [3]) and 50 nM in assay [2] (setting [3]).

Turning to `Cc1nc(C(=O)N(CCc2c[nH]c3ccc(F)cc23)CC2CC2)c(-c2cnc3ccccc3c2)s1` [Example 428, 2-Methyl-5-quinolin-3-yl-thiazole-4-carboxylic acid cyclopropylmethyl-[2-(5-fluoro-1H-indol-3-yl)-ethyl]-amide], the 50% inhibitory concentration (IC50) in assay [1] (setting [3]) was determined as 83 nM; in assay [2] (setting [3]), 18 nM.

With `Cc1nc(C(=O)N(CCc2c[nH]c3ccc(F)cc23)CC2CC2)c(-c2ccc3cc[nH]c3c2)s1` [Example 430, 5-(1H-Indol-6-yl)-2-methyl-thiazole-4-carboxylic acid cyclopropylmethyl-[2-(5-fluoro-1H-indol-3-yl)-ethyl]-amide], the values for the IC50 in assay [1] (setting [3]) and in assay [2] (setting [3]) were 104 nM and 21 nM, respectively.

Regarding `Cc1cccc(-c2sc(CN)nc2C(=O)N(CCc2c[nH]c3ccc(F)cc23)CC2CC2)c1` [Example 433, 2-Aminomethyl-5-m-tolyl-thiazole-4-carboxylic acid cyclopropylmethyl-[2-(5-fluoro-1H-indol-3-yl)-ethyl]-amide], the IC50 in assay [1] (setting [3]) turned out to be 280 nM; in assay [2] (setting [3]), 239 nM.

Consider `Cc1ccc(-c2nccnc2C(=O)N(CCN)CCc2c[nH]c3ccc(F)cc23)cc1C` [Example 434, 3-(3,4-Dimethyl-phenyl)-pyrazine-2-carboxylic acid (2-amino-ethyl)-[2-(5-fluoro-1H-indol-3-yl)-ethyl]amide], for which the IC50 in assay [1] (setting [3]) is > 5420 nM; in assay [2] (setting [3]) it was 816 nM.

Take `CNc1nc(C(=O)N(CCc2c[nH]c3ccc(F)cc23)CC2CC2)c(-c2cccc(C)c2)s1` [Example 435, 2-Methylamino-5-m-tolyl-thiazole-4-carboxylic acid cyclopropylmethyl-[2-(5-fluoro-1H-indol-3-yl)-ethyl]amide]: the IC50 was found to be 54 nM in assay [1] (setting [3]) and 32 nM in assay [2] (setting [3]).
